# System: IL-1β cytokine output from THP-1s
# Assay: THP-1 AlphaLISA IL-1β cytokine assay
# Type: cell-based, human
# Conditions: Homo sapiens, THP-1, PMA-differentiated THP-1 cells, LPS 24 hr then Nigericin 1 hour; read-out: IL-1β (IC50)
# Protocol: Measuring Inhibitory Effects on IL-1β and IL-6 Cytokine Output from THP-1s
# The cytokine inhibition profiles of compounds of formula (IW-1) were determined in a differentiated THP-1 cell assay. All assays were performed in RPMI-1640 growth medium (Gibco), supplemented with 10% fetal bovine serum (FBS; Gibco), 1% penicillin-streptomycin and 1% sodium pyruvate unless specified otherwise. The IL-1β and IL-6 cytokine inhibition assays were each run in a background of differentiated THP-1 cells as described below. All reagents described were from Sigma-Aldrich unless specified otherwise. Compounds were prepared as 10 mM DMSO stocks.
# THP-1 cells were expanded as a suspension up to 80% confluence in appropriate growth medium. Cells were harvested, suspended, and treated with an appropriate concentration of phorbol 12-myristate 13-acetate (PMA) over a 72 hr period (37° C./5% CO2).
# Following 72 hrs of THP-1 cell incubation, cellular medium was removed and replaced with fresh growth media containing 1% of FBS. Working concentrations of compounds were prepared separately in 10% FBS treated growth medium and pre-incubated with the cells for 30 minutes (37° C./5% CO2). Following the 30 minute compound pre-incubation, THP-1s were treated with an appropriate concentration of LPS and the THP-1s were subsequently incubated for a 24 hr period (37° C./5% CO2). An appropriate final concentration of Nigericin was then dispensed into the THP-1 plates and incubated for 1 hour (37° C./5% CO2) before THP-1 supernatants were harvested and collected in separate polypropylene 96-well holding plates.
# Reagents from each of the IL-1β and IL-6 commercial kits (Perkin Elmer) were prepared and run according to the manufacturer's instructions. Subsequently, fluorescence signal detection in a microplate reader was measured (EnVision® Multilabel Reader, Perkin Elmer).
# Percentage inhibition was calculated per cytokine by normalising the sample data to the high and low controls used within each plate (+/−LPS respectively). Percentage inhibition was then plotted against compound concentration and the 50% inhibitory concentration (IC50) was determined from the resultant concentration-response curve.
row,Compound,IC50 [µM]
1,"C=C(CC(=O)OC(C)c1cc(Cl)cc(Cl)c1)C(=O)OCC(=O)O (single isomer, unassigned; isomer 1) [Example 198, 2-((4-(1-(3,5-dichlorophenyl)ethoxy)-2-methylene-4-oxobutanoyl)oxy)acetic acid (Isomer 1)]",22
2,"C=C(CC(=O)OC1CCCCCCC1)C(=O)O[C@@H](C)[C@@H](NC(C)=O)C(=O)O (stereo in doubt) [Example 136, (2R,3S)-2-acetamido-3-((4-(cyclooctyloxy)-2-methylene-4-oxobutanoyl)oxy)butanoic acid]",54.2
3,"C=C(CC(=O)OCCCCCCCC)C(=O)OC1CCOCC1 [Example 26, 4-octyl 1-(tetrahydro-2H-pyran-4-yl) 2-methylenesuccinate]",16.1
4,"C=C(CC(=O)OCCCCCC)C(=O)OCCN1CCCC1=O [Example 77, 4-hexyl 1-(2-(2-oxopyrrolidin-1-yl)ethyl) 2-methylenesuccinate]",14.5
5,"C=C(CC(=O)OC1CCCCCCC1)C(=O)OCC(=O)N(C)CC(=O)O [Example 103, N-(2-((4-(cyclooctyloxy)-2-methylene-4-oxobutanoyl)oxy)acetyl)-N-methylglycine]",55.5
6,"C=C(CC(=O)OC1CCCCCCC1)C(=O)OCC(=O)N1CCC[C@H]1C(=O)O [Example 104, (2-((4-(cyclooctyloxy)-2-methylene-4-oxobutanoyl)oxy)acetyl)-L-proline]",14.4
7,"C=C(CC(=O)O[C@@H](C)CCCCCC)C(=O)OCC(=O)N(C)CC(=O)O [Example 105, (S)-N-methyl-N-(2-((2-methylene-4-(octan-2-yloxy)-4-oxobutanoyl)oxy)acetyl)glycine]",27.9
8,"C=C(CC(=O)O[C@@H](C)CCCCCC)C(=O)OCC(=O)NCC(=O)O [Example 106, (S)-(2-((2-methylene-4-(octan-2-yloxy)-4-oxobutanoyl)oxy)acetyl)glycine]",15.6
9,"C=C(CC(=O)OC1CCCCC1)C(=O)OC(C(=O)O)C(F)(F)F (centres unmarked) [Example 121, 2-((4-(cyclohexyloxy)-2-methylene-4-oxobutanoyl)oxy)-3,3,3-trifluoropropanoic acid]",54.2
10,"C=C(CC(=O)OC1CCCCC1)C(=O)O[C@@H](C(=O)O)c1ccccc1 [Example 127, (R)-2-((4-(cyclohexyloxy)-2-methylene-4-oxobutanoyl)oxy)-2-phenylacetic acid]",44.9
11,"C=C(CC(=O)OC(CCC)CCCC)C(=O)OCC(=O)O (centres unmarked) [Example 147, 2-(2-methylene-4-(octan-4-yloxy)-4-oxobutanoyloxy)acetic acid]",13.4
12,"C=C(CC(=O)OC(CCC)CCC)C(=O)OCC(=O)O [Example 148, 2-((4-(heptan-4-yloxy)-2-methylene-4-oxobutanoyl)oxy)acetic acid]",29.6
13,"C=C(CC(=O)OC1C2CC3CC(C2)CC1C3)C(=O)OCC(=O)O (centres unmarked) [Example 149, 2-((4-((adamantan-2-yl)oxy)-2-methylene-4-oxobutanoyl)oxy)acetic acid]",12.1
14,"C=C(CC(=O)OC1CCCCC1(C)C)C(=O)OCC(=O)O (centres unmarked) [Example 155, 2-((4-((2,2-dimethylcyclohexyl)oxy)-2-methylene-4-oxobutanoyl)oxy)acetic acid]",16.5

# Further lines, results first:
row,IC50 [µM],Compound
1,11.7,"C=C(CC(=O)OC(C)C1CCCCC1)C(=O)OCC(=O)O (centres unmarked) [Example 150, 2-((4-(1-cyclohexylethoxy)-2-methylene-4-oxobutanoyl)oxy)acetic acid]"
2,10.3,"C=C(CC(=O)OC(C)C1CCCCCC1)C(=O)OCC(=O)O (centres unmarked) [Example 151, 2-((4-(1-cycloheptylethoxy)-2-methylene-4-oxobutanoyl)oxy)acetic acid]"
3,10.3,"C=C(CC(=O)OC1CC2(CCCC2)C1)C(=O)OCC(=O)O [Example 152, 2-(2-methylene-4-oxo-4-(spiro[3.4]octan-2-yloxy)butanoyloxy)acetic acid]"
4,8.5,"C=C(CC(=O)OC(CC)CCCCC)C(=O)OCC(=O)O (centres unmarked) [Example 146, 2-(2-methylene-4-(octan-3-yloxy)-4-oxobutanoyloxy)acetic acid]"
5,8.4,"C=C(CC(=O)OC1CCC2(CCC2)CC1)C(=O)OCC(=O)O [Example 154, 2-(2-methylene-4-oxo-4-(spiro[3.5]nonan-7-yloxy)butanoyloxy)acetic acid]"
6,7.8,"C=C(CC(=O)O[C@H](C)CCCCCC)C(=O)OC(C)Cc1nnn[nH]1 (stereo partly drawn) [Example 140, 1-(1-(1H-tetrazol-5-yl)propan-2-yl) 4-((R)-octan-2-yl) 2-methylenesuccinate]"
7,7,"C=C(CC(=O)OC1CC2(CCCCC2)C1)C(=O)OCC(=O)O [Example 153, 2-(2-methylene-4-oxo-4-(spiro[3.5]nonan-2-yloxy)butanoyloxy)acetic acid]"
8,6.5,"C=C(CC(=O)O[C@@H](C)CCCCCC)C(=O)OC(C)Cc1nnn[nH]1 (stereo partly drawn) [Example 141, 1-(1-(1H-tetrazol-5-yl)propan-2-yl) 4-((S)-octan-2-yl) 2-methylenesuccinate]"
9,6.2,"C=C(CC(=O)OC1CCCCC1)C(=O)OCc1nnn(C)n1 [Example 142, 4-cyclohexyl 1-((2-methyl-2H-tetrazol-5-yl)methyl) 2-methylenesuccinate]"
10,4.4,"C=C(CC(=O)OC1CCCCCCC1)C(=O)OCC(C)(C)S(=O)(=O)c1cccc(Cl)c1 [Example 131, 1-(2-((3-chlorophenyl)sulfonyl)-2-methylpropyl) 4-cyclooctyl 2-methylenesuccinate]"
11,4.3,"C=C(CC(=O)OC1CCCCCCC1)C(=O)OCC(C)(C)S(C)(=O)=O [Example 132, 4-cyclooctyl 1-(2-methyl-2-(methylsulfonyl)propyl) 2-methylenesuccinate]"
12,4.2,"C=C(CC(=O)OC1CCCCC1)C(=O)OC1CN(C(C)=O)C1 [Example 74, 1-(1-acetylazetidin-3-yl) 4-cyclohexyl 2-methylenesuccinate]"
13,4.1,"C=C(CC(=O)OCCCCCC)C(=O)OC1CCN(S(C)(=O)=O)CC1 [Example 76, 4-hexyl 1-(1-(methylsulfonyl)piperidin-4-yl) 2-methylenesuccinate]"
14,2,"C=C(CC(=O)OC1CCCCC1)C(=O)OCc1nnnn1C [Example 143, 4-cyclohexyl 1-((1-methyl-1H-tetrazol-5-yl)methyl) 2-methylenesuccinate]"

# Same assay, conditions: Homo sapiens, THP-1, read-out: IL-1β (IC50)
row,Compound,IC50 [µM]
1,"C=C(CC(=O)OC1CCCCC1)C(=O)OC/C=C/C(=O)O [Example 123, (E)-4-((4-(cyclohexyloxy)-2-methylene-4-oxobutanoyl)oxy)but-2-enoic acid]",19.5
2,"C=C(CC(=O)OCC(=O)O)C(=O)OCCS(=O)(=O)c1cccc(Cl)c1 [Example 126, 2-((3-((2-((3-chlorophenyl)sulfonyl)ethoxy)carbonyl)but-3-enoyl)oxy)acetic acid]",0.7

# Same assay, conditions: Homo sapiens; PMA-differentiated THP-1 cells, LPS 24 hr then Nigericin 1 hour; read-out: IL-1β (IC50)
row,Compound,IC50 [µM]
1,"C=C(CC(=O)OC1CCCCC1)C(=O)OCCS(=O)(=O)CCC(=O)O [Example 124, 3-((2-((4-(cyclohexyloxy)-2-methylene-4-oxobutanoyl)oxy)ethyl)sulfonyl)propanoic acid]",52.4

# Same assay, conditions: PMA-differentiated THP-1 cells, LPS 24 hr then Nigericin 1 hour; read-out: IL-1β (IC50)
row,IC50 [µM],Compound
1,18.3,"C=C(CC(=O)OC(C)c1cc(Cl)cc(Cl)c1)C(=O)OCC(=O)O (single isomer, unassigned; isomer 2) [Example 199, 2-((4-(1-(3,5-dichlorophenyl)ethoxy)-2-methylene-4-oxobutanoyl)oxy)acetic acid (Isomer 2)]"

# Reference: US12390437B2, “Itaconic acid derivatives and uses thereof intreating an inflammatory disease or a disease associated with an undesirable immune response” (Sitryx Therapeutics Limited, priority 2019, dated 2025)
